From patent US20220241207A1, “EXTENDED-RELEASE SOLID ORAL DOSAGE FORM COMPRISING VITAMIN B12 AND A VITAMIN B12 DEPLETING DRUG” (DSM IP ASSETS B.V., priority 2019, published 2022)

Description: The solubilization medium was: • SIF (simulated intestinal fluid, pH=6.8, prepared according to Ph. Eur.)
The dissolution medium was heated to 37° C. and the analyses were performed at this temperature. During the analyses, the salts were added in access to the solubilization media and left to mix for 24 h. Afterwards, the solutions were filtered, and the precipitates were investigated using ATR-IR analysis to confirm the presence of the starting material (e.g. respective Ca salt). Attenuated total reflection (ATR) is a sampling technique used in conjunction with infrared spectroscopy which enables samples to be examined directly in the solid or liquid state without further preparation. The filtered solutions were analysed for Ca^2+ ions content.

Ca^2+ ions average: 0.028 mg/mL
solubility average (pH 6.8): 90 µg/mL
Substance: dicalciumphosphat anhydrous [dicalcium phosphate anhydrous]
